Assay results from PMC6405172, “In vitro activity and mode of action of phenolic compounds on Leishmania donovani” (PLoS Neglected Tropical Diseases, 2019).

Test system: Leishmania donovani intracellular amastigotes
Experiment: Intracellular amastigote assay in infected RAW 264.7 cells
Format: cell-based
Conditions: CC50 Raw 264.7 / IC50 intracellular amastigotes
Experimental: Amastigote cultures were prepared as reported by Jain and colleagues. Briefly, Raw 264.7 cells (4 x 10^7 cells) were seeded in 4 chamber slides and 1 x 10^7 cells in 96 well plates and incubated for 24 hours at 37°C in 5% CO2. The RAW 264.7 cells were infected with metacyclic promastigotes (1 x 10^8 cells) at an infection ratio of 1:10 macrophage: parasites and incubated for 24 hours at 37°C in 5% CO2. The overlying medium was removed, and the monolayer intracellular amastigotes were carefully washed four times with serum free M199 to remove free parasites. Freshly prepared M199 containing 10% FBS and the test compounds at concentrations ranging from 0–50 μg/mL were added to the infected cells and incubated for 48 hours at 37°C in 5% CO2. Triplicate incubations were performed in all the experiments. The chamber slides were washed thrice after incubation with M199 without FBS. The slides were then fixed in absolute methanol for 30 sec, rehydrated in 1x PBS for 5 min and stained with DAPI for 15 min. The slides were viewed by fluorescence microscopy and the number of infected macrophages counted using ImageJ Software to determine the infectivity index and IC50 values for amastigotes.
The infected RAW 264.7 cells in the 96 wells microtiter plates were also incubated for 48 hours and washed thrice as above. Sodium dodecyl sulfate (SDS) of concentration 0.05% was added to the wells for 30 sec for controlled lysis with M199 and 10% FBS. After the 30 sec, M199 with 10% FBS was added and the plates incubated at 25°C for 72 hours for the differentiation of the rescued amastigotes to promastigotes. Following incubation, the amastigotes were subjected to MTT assay and the absorbance obtained were used to estimate IC50 values of the compounds against the amastigote forms.

SMILES	Selectivity Index (CC50/IC50), amastigotes
O=C(O)/C=C/c1ccc(O)c(O)c1 [Caffeic acid, caffeic acid]	2.29
O=C(/C=C/c1ccc(O)c(O)c1)O[C@@H]1C[C@](O)(C(=O)O)C[C@@H](O)[C@H]1O [Chlorogenic acid, chlorogenic acid]	1.11
COc1cc(/C=C/C(=O)O)ccc1O [Ferulic acid, ferulic acid]	6.30
O=C(O)c1cc(O)c(O)c(O)c1 [Gallic acid, gallic acid]	0.60
O=C(O)c1ccccc1O [Salicylic acid, salicylic acid]	0.69
COc1cc(C(=O)O)ccc1O [Vanillic acid, vanillic acid]	0.19

Same assay, conditions: Leishmania donovani, RAW264.7, 48 h, intracellular amastigotes in RAW 264.7 cells, 48 hours; read-out: Amastigotes IC50 (μM) ± SD

SMILES	IC50 [µM]
COc1cc(/C=C/C(=O)O)ccc1O [Ferulic acid, ferulic acid]	54.98 ± 0.01

Same assay, conditions: Leishmania donovani, RAW264.7, 48 h, read-out: Amastigotes IC50 (μM) ± SD, intracellular amastigotes in RAW 264.7 cells, 48 hours

SMILES	IC50 [µM]
O=C(O)c1ccc(O)c(O)c1 [Protocatechuic acid, protocatechuic acid]	> 100

Same assay, conditions: Leishmania donovani, RAW264.7; intracellular amastigotes in RAW 264.7 cells, 48 hours; read-out: Amastigotes IC50 (μM) ± SD

SMILES	IC50 [µM]
O=C(O)/C=C/c1ccc(O)c(O)c1 [Caffeic acid, caffeic acid]	56.77 ± 0.01
O=C(/C=C/c1ccc(O)c(O)c1)O[C@@H]1C[C@](O)(C(=O)O)C[C@@H](O)[C@H]1O [Chlorogenic acid, chlorogenic acid]	53.75 ± 0.4
O=C(O)c1cc(O)c(O)c(O)c1 [Gallic acid, gallic acid]	54.65 ± 0.25
O=C(O)c1ccccc1O [Salicylic acid, salicylic acid]	90.65 ± 0.04
COc1cc(C(=O)O)ccc1O [Vanillic acid, vanillic acid]	69.97 ± 0.02
O=C(O)C=Cc1ccc(O)cc1 [p-Coumaric acid]	> 100

Test system: Leishmania donovani promastigotes
Experiment: Promastigote viability assay (MTT)
Format: cell-based
Conditions: CC50 Raw 264.7 / IC50 promastigotes
Experimental: The MTT assay was done as previously described. Briefly, promastigotes (2 x 10^5 cells) were cultured in freshly prepared M-199 medium supplemented with 10% heat inactivated fetal bovine serum in the presence or absence of varying concentrations of the phenolic compounds (0–50 μg/mL) for 72 hours at 25°C. Amphotericin B (0–50 μg/mL) and deferoxamine (0–50 μg/mL) were used as positive controls. After incubation, 5 mg/mL MTT solution was added to the promastigotes in each well and incubated for 3 hours at 25°C. In this assay, the yellow tetrazolium MTT dye was reduced to insoluble formazan crystals (purple color) in living cells using NADH as their reducing agent. Formazan crystals formed after incubation were solubilized with acidified isopropanol and incubated at 37°C for 30 min. The change in color from yellow to purple was read at an absorbance of 570 nm using Thermo Scientific Varioskan LUX. The cell viability and IC50 were determined from the concentration response curve generated using GraphPad Prism 6.0 Software.

SMILES	Selectivity Index (CC50/IC50), promastigotes
O=C(O)/C=C/c1ccc(O)c(O)c1 [Caffeic acid, caffeic acid]	2.21
O=C(/C=C/c1ccc(O)c(O)c1)O[C@@H]1C[C@](O)(C(=O)O)C[C@@H](O)[C@H]1O [Chlorogenic acid, chlorogenic acid]	1.11
COc1cc(/C=C/C(=O)O)ccc1O [Ferulic acid, ferulic acid]	5.02
O=C(O)c1cc(O)c(O)c(O)c1 [Gallic acid, gallic acid]	0.17
O=C(O)c1ccc(O)c(O)c1 [Protocatechuic acid, protocatechuic acid]	7.05
O=C(O)c1ccccc1O [Salicylic acid, salicylic acid]	0.83
COc1cc(C(=O)O)ccc1O [Vanillic acid, vanillic acid]	0.19
O=C(O)C=Cc1ccc(O)cc1 [p-Coumaric acid]	4.24

Same assay, conditions: Leishmania donovani, 72 h, read-out: Promastigotes IC50 (μM) ± SD

SMILES	IC50 [µM]
O=C(O)c1ccc(O)c(O)c1 [Protocatechuic acid, protocatechuic acid]	72.54 ± 0.01

Same assay, conditions: Leishmania donovani; MTT, 72 hours at 25°C; read-out: Promastigotes IC50 (μM) ± SD

SMILES	IC50 [µM]
O=C(O)/C=C/c1ccc(O)c(O)c1 [Caffeic acid, caffeic acid]	58.77 ± 0.01
O=C(/C=C/c1ccc(O)c(O)c1)O[C@@H]1C[C@](O)(C(=O)O)C[C@@H](O)[C@H]1O [Chlorogenic acid, chlorogenic acid]	53.92 ± 0.03
COc1cc(/C=C/C(=O)O)ccc1O [Ferulic acid, ferulic acid]	69 ± 0.01
O=C(O)c1cc(O)c(O)c(O)c1 [Gallic acid, gallic acid]	198 ± 0.03
O=C(O)c1ccccc1O [Salicylic acid, salicylic acid]	75.4 ± 0.02
COc1cc(C(=O)O)ccc1O [Vanillic acid, vanillic acid]	68.97 ± 0.02
O=C(O)C=Cc1ccc(O)cc1 [p-Coumaric acid]	76.09 ± 0.01

Test system: not listed separately
Experiment: Cytotoxicity of compounds on mammalian cells (MTT)
Format: cell-based
Conditions: mouse, Raw 264.7 cells, read-out: Macrophages CC50 (μM) ±SD
Experimental: Raw 264.7 cells were seeded into 96-well plates at (1 x 10^6 cells) in DMEM supplemented with 10% FBS, 100 μg/mL streptomycin, 100 u/mL penicillin-G, 2g/L NaHCO3 and incubated at 37°C for 24 hours in 5% CO2. The cells were treated with 0–50 μg/mL concentrations of the phenolic compounds for 48 hours at 37°C in 5% CO2. Deferoxamine and amphotericin B at 0–50 μg/mL concentrations were used as positive controls. Cell viability was estimated by measuring the mitochondria oxidative activity by MTT assay and absorbance was read at 570 nm using Thermo Scientific Varioskan LUX. Selectivity index (SI) was calculated as the ratio of the CC50 to IC50 values.

SMILES	CC50 at 48 h [µM]
COc1cc(/C=C/C(=O)O)ccc1O [Ferulic acid, ferulic acid]	346.7 ± 0.01
O=C(O)c1cc(O)c(O)c(O)c1 [Gallic acid, gallic acid]	33.76 ± 0.02
O=C(O)c1ccc(O)c(O)c1 [Protocatechuic acid, protocatechuic acid]	511.9 ± 0.01
COc1cc(C(=O)O)ccc1O [Vanillic acid, vanillic acid]	13.15 ± 0.01
O=C(O)C=Cc1ccc(O)cc1 [p-Coumaric acid]	322.6 ± 0.15

Same assay, conditions: mouse, Raw 264.7 macrophage cells, Raw 264.7 cells, read-out: Macrophages CC50 (μM) ±SD

SMILES	CC50 at 48 h [µM]
O=C(O)/C=C/c1ccc(O)c(O)c1 [Caffeic acid, caffeic acid]	129.92 ± 0.01
O=C(/C=C/c1ccc(O)c(O)c1)O[C@@H]1C[C@](O)(C(=O)O)C[C@@H](O)[C@H]1O [Chlorogenic acid, chlorogenic acid]	59.9 ± 0.02
O=C(O)c1ccccc1O [Salicylic acid, salicylic acid]	62.99 ± 0.01
